According to US10105357B2, “Indication of antibiotic drugs for preparation of cancer inhibition pharmaceutical composition” (LAUNX BIOMEDICAL CO., LTD., priority 2014, dated 2018):
Like-named read-outs stand apart in the source and are kept apart here.

Experiments:
[1] = test system: cancer cell lines; assay: Cell viability analysis (WST-1) on cancer cell lines; type: cell-based, human; conditions: drug 10 μM, 72 hours, WST-1; Table 3
[2] = test system: HI650 (Lung Adenocarcinoma); assay: Cell viability analysis, lung cancer HI650; type: cell-based, human; conditions: Homo sapiens, NCI-H1650, 72 h
[3] = test system: A549 (Lung Adenocarcinoma); assay: Cell viability analysis, lung cancer A549; type: cell-based, human; conditions: Homo sapiens, A549, 72 h
[4] = test system: AGS (Gastric Adenocarcinoma); assay: Cell viability analysis, gastric cancer AGS; type: cell-based, human; conditions: Homo sapiens, 72 h
[5] = test system: MKN-45 (Gastric Adenocarcinoma); assay: Cell viability analysis, gastric cancer MKN-45; type: cell-based, human; conditions: Homo sapiens, MKN-45, 72 h
[6] = test system: HepG2 (Hepatocellular Carcinoma); assay: Cell viability analysis, hepatic cancer HepG2; type: cell-based, human; conditions: Homo sapiens, HepG2, 72 h
[7] = test system: Hep3B (hepatocellular carcinoma); assay: Cell viability analysis, hepatic cancer Hep3B; type: cell-based, human; conditions: Homo sapiens, 72 h; Hep3B; repeated experiment; read-out: The results of antibiotic drug inhibiting cancer cell lines (cell viability analysis), Hep3B
[8] = test system: LoVo (Colorectal Adenocarcinoma); assay: Cell viability analysis, colon cancer LoVo; type: cell-based, human; conditions: Homo sapiens, LoVo, 72 h
[9] = test system: A375 (Amelanotic Melanoma); assay: Cell viability analysis, skin cancer A375; type: cell-based, human; conditions: Homo sapiens, A-375, 72 h
[10] = test system: BCC (basal cell carcinoma); assay: Cell viability analysis, skin cancer BCC; type: cell-based, human; conditions: Homo sapiens, 72 h; BCC; repeated experiment; read-out: The results of antibiotic drug inhibiting cancer cell lines (cell viability analysis), BCC
[11] = test system: HeLa (Cervix Adenocarcinoma); assay: Cell viability analysis, cervical cancer HeLa; type: cell-based, human; conditions: Homo sapiens, HeLa, 72 h, HeLa
[12] = test system: C-33A (Cervical carcinoma); assay: Cell viability analysis, cervical cancer C-33A; type: cell-based, human; conditions: Homo sapiens, 72 h; C-33A; repeated experiment; read-out: The results of antibiotic drug inhibiting cancer cell lines (cell viability analysis), C-33A
[13] = test system: PC3 (p53−) (Prostate Adenocarcinoma); assay: Cell viability analysis, prostate cancer PC3; type: cell-based, human; conditions: Homo sapiens, 72 h
[14] = test system: T24; assay: Cell viability analysis, bladder cancer T24; type: cell-based, human; conditions: Homo sapiens, T-24, 72 h; T24; repeated experiment; read-out: The results of antibiotic drug inhibiting cancer cell lines (cell viability analysis), T24
[15] = test system: MCF7 (Mammary Gland, Adenocarcinoma); assay: Cell viability analysis, breast cancer MCF7; type: cell-based, human; conditions: Homo sapiens, MCF7, 72 h
[16] = test system: MDA-MB-231 (Mammary Gland, Adenocarcinoma); assay: Cell viability analysis, breast cancer MDA-MB-231; type: cell-based, human; conditions: Homo sapiens, MDA-MB-231, 72 h; MDA-MB231; repeated experiment; read-out: The results of antibiotic drug inhibiting cancer cell lines (cell viability analysis), MDA-MB231
[17] = test system: BxPC-3; assay: Cell viability analysis, pancreatic cancer BxPC-3; type: cell-based, human; conditions: Homo sapiens, 72 h; BxPC-3; repeated experiment; read-out: The results of antibiotic drug inhibiting cancer cell lines (cell viability analysis), BxPC-3
[18] = test system: AsPC-1; assay: Cell viability analysis, pancreatic cancer AsPC-1; type: cell-based, human; conditions: Homo sapiens, ASPC1, 72 h; AsPC-1; repeated experiment; read-out: The results of antibiotic drug inhibiting cancer cell lines (cell viability analysis), AsPC-1
[19] = test system: NIH: OVCAR-3; assay: Cell viability analysis, ovarian cancer NIH: OVCAR-3; type: cell-based, human; conditions: Homo sapiens, 72 h; NIH-OVCAR-3; repeated experiment; read-out: The results of antibiotic drug inhibiting cancer cell lines (cell viability analysis), NIH-OVCAR-3
[20] = test system: TOV-21G; assay: Cell viability analysis, ovarian cancer TOV-21G; type: cell-based, human; conditions: Homo sapiens, TOV21G, 72 h; TOV-21G; repeated experiment; read-out: The results of antibiotic drug inhibiting cancer cell lines (cell viability analysis), TOV-21G
[21] = test system: SAS (Tongue squamous cell carcinoma); assay: Cell viability analysis, tongue cancer SAS; type: cell-based, human; conditions: Homo sapiens, 72 h; SAS; repeated experiment; read-out: The results of antibiotic drug inhibiting cancer cell lines (cell viability analysis), SAS
[22] = test system: U-2OS; assay: Cell viability analysis, osteosarcoma U-2OS; type: cell-based, human; conditions: Homo sapiens, 72 h; U2OS; repeated experiment; read-out: The results of antibiotic drug inhibiting cancer cell lines (cell viability analysis), U2OS
[23] = test system: 786-O (Renal adenocarcinoma); assay: Cell viability analysis, renal cancer 786-O; type: cell-based, human; conditions: Homo sapiens, 786-0, 72 h; 786-O; repeated experiment; read-out: The results of antibiotic drug inhibiting cancer cell lines (cell viability analysis), 786-O
[24] = test system: HL-60 (Acute Promyelocytic Leukemia); assay: Cell viability analysis, leukemia HL-60; type: cell-based, human; conditions: Homo sapiens, HL-60, 72 h, drug 10 μM, 72 hours, WST-1, OD450 nm; read-out: cell viability (survival rate), HL-60
[25] = test system: HCT116 (p53+) (Colorectal Carcinoma)

SMILES: Cc1ccc2c(Cl)cc(Cl)c(O)c2n1 [Chlorquinaldol]
- inhibition effect on different cancer cell lines [1]: significant inhibition effect
- viability at 10 µM ([2]; H1650, repeated experiment, read-out: The results of antibiotic drug inhibiting cancer cell lines (cell viability analysis), H1650): 75.2%
- viability at 10 µM ([2]; drug 10 μM, 72 hours, WST-1, OD450 nm, read-out: cell viability (survival rate), H1650): 59.6%
- viability at 10 µM ([3]; A549, repeated experiment, read-out: The results of antibiotic drug inhibiting cancer cell lines (cell viability analysis), A549): 37.8%
- viability at 10 µM ([3]; drug 10 μM, 72 hours, WST-1, OD450 nm, read-out: cell viability (survival rate), A549): 54.5%
- viability at 10 µM ([4]; AGS, repeated experiment, read-out: The results of antibiotic drug inhibiting cancer cell lines (cell viability analysis), AGS): 53.9%
- viability at 10 µM ([4]; drug 10 μM, 72 hours, WST-1, OD450 nm, read-out: cell viability (survival rate), AGS): 35.7%
- viability at 10 µM ([5]; MKN-45, repeated experiment, read-out: The results of antibiotic drug inhibiting cancer cell lines (cell viability analysis), MKN-45): 92.4%
- viability at 10 µM ([5]; drug 10 μM, 72 hours, WST-1, OD450 nm, read-out: cell viability (survival rate), MKN-45): 75.4%
- viability at 10 µM ([6]; HepG2, repeated experiment, read-out: The results of antibiotic drug inhibiting cancer cell lines (cell viability analysis), HepG2): 82%
- viability at 10 µM ([6]; drug 10 μM, 72 hours, WST-1, OD450 nm, read-out: cell viability (survival rate), HepG2): 82.3%
- viability at 10 µM [7]: 105%
- viability at 10 µM ([8]; read-out: The results of antibiotic drug inhibiting cancer cell lines (cell viability analysis), LoVo, repeated experiment): 45.8%
- viability at 10 µM ([8]; read-out: cell viability (survival rate), LoVo, drug 10 μM, 72 hours, WST-1, OD450 nm): 62.8%
- viability at 10 µM ([9]; A375, repeated experiment, read-out: The results of antibiotic drug inhibiting cancer cell lines (cell viability analysis), A375): 35.5%
- viability at 10 µM ([9]; drug 10 μM, 72 hours, WST-1, OD450 nm, read-out: cell viability (survival rate), A375): 43%
- viability at 10 µM [10]: 43%
- viability at 10 µM ([11]; repeated experiment, read-out: The results of antibiotic drug inhibiting cancer cell lines (cell viability analysis), HeLa): 64.9%
- viability at 10 µM ([11]; drug 10 μM, 72 hours, WST-1, OD450 nm, read-out: cell viability (survival rate), HeLa): 42.6%
- viability at 10 µM [12]: 47.5%
- viability at 10 µM ([13]; PC-3, repeated experiment, read-out: The results of antibiotic drug inhibiting cancer cell lines (cell viability analysis), PC-3): 66.4%
- viability at 10 µM ([13]; drug 10 μM, 72 hours, WST-1, OD450 nm, read-out: cell viability (survival rate), PC3): 68.4%
- viability at 10 µM [14]: 50.6%
- viability at 10 µM ([15]; MCF-7, repeated experiment, read-out: The results of antibiotic drug inhibiting cancer cell lines (cell viability analysis), MCF-7): 30.2%
- viability at 10 µM ([15]; drug 10 μM, 72 hours, WST-1, OD450 nm, read-out: cell viability (survival rate), MCF7): 47.8%
- viability at 10 µM [16]: 65%
- viability at 10 µM [17]: 53.9%
- viability at 10 µM [18]: 62.8%
- viability at 10 µM [19]: 78.1%
- viability at 10 µM [20]: 40.1%
- viability at 10 µM [21]: 20.6%
- viability at 10 µM [22]: 32.4%
- viability at 10 µM [23]: 41.8%
- viability at 10 µM [24]: 64.8%
- viability [25]: 38.5%
